Source: ChEMBL document CHEMBL5579878, “Allosteric Activation of Protein Phosphatase 5 with Small Molecules” (J Med Chem, 2024)
The source made the active and inactive calls. The rule behind the calls is not given here.

What was measured:
[1] = system: T1, Serine/threonine-protein phosphatase 5 (Homo sapiens), P53041 [K430A]; assay: Activation of PP5 K430A mutant (unknown origin) using pNPP as substrate assessed as increase in phosphatase activity at 10 to 200 uM incubated for 30 mins by spectrophotometric analysis; conditions: dose 10-200 µM
T1 sequence (whole entry): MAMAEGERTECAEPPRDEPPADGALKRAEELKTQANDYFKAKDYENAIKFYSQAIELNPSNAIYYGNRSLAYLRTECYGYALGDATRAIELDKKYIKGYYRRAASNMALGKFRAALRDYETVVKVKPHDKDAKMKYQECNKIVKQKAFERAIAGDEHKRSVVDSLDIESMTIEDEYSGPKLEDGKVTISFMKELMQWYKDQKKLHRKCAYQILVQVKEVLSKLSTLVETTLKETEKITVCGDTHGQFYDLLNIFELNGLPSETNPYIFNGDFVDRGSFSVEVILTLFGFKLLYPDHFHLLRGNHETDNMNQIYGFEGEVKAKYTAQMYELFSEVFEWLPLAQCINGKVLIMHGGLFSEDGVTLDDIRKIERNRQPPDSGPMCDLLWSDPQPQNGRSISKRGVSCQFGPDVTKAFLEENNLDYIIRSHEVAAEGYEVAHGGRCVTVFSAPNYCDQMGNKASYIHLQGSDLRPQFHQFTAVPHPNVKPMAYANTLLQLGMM

[2] = system: HCT-116; assay: Downregulation of AT13387-induced HSP27 expression in human HCT-116 cells at 50 uM incubated for 24 hrs by Western blot analysis; assay type: functional, cell-based

Q: With `N=c1oc2cc(F)cc(F)c2cc1C(N)=S` as the compound, how does the Activity [1] read?
A: inactive

Q: And the Activity [2]?
A: Active
